In test [1] the test system is J774 A.1 macrophages. Briefly: Macrophage cholesterol efflux mediated by HDL or LPDS. The settings on record: Mus musculus. Type of test: cell-based, murine.
Description: HDL and LPDS were isolated from 3 healthy subjects by ultracentrifugation. […] The cells were also incubated with HDL or LPDS fractions that were preincubated for 1 hour at 37° C. with the PON1 inhibitor 2-hydroxyquinoline (200 μM), or with HDL and LPDS that were enriched with evolved PON1 (50 paraoxonase U/ml). HDL or LPDS-mediated cholesterol efflux was then determined. Results are given as mean±S.D of three different experiments *p<0.01 vs. HDL, #p<0.01 vs. LPDS.
Cells: J774 A.1 murine macrophage cells were purchased from the American Tissue Culture Collection (ATCC, Rockville, Md.). The cells were grown in Dulbecco's modified Eagle's medium (DMEM) containing 5% FCS and 100 U penicillin/ml, 100 μg streptomycin/ml, and 2 mM glutamine.
Macrophage Cholesterol efflux determination: J774 A.1 macrophages were incubated with [^3H]-labeled cholesterol (2 μCi/ml) for 1 hour at 37° C., followed by cell wash in ice-cold PBS (×3) and a further incubation in the absence or presence of HDL or LPDS (5 paraoxonase units/ml)) for 3 hours at 37° C. […] Cellular and medium [^3H]-labeled cholesterol was quantitated and the percentage of cholesterol efflux was calculated [the ratio of [^3H]-label in the medium*100/([^3H]-label in the medium+[^3H]-label in the cells), 18]. […]
For test [2], the target named is T1, PON1 (Homo sapiens, UniProt P27169). To be noted: inhibitor 200 μM.
Description: Arylesterase activity: Arylesterase activity was determined using 5 μl serum or 10 μl of the HDL or LPDS fraction in a total volume of 1 ml of 50 mM Tris-HCL, pH 8.0 containing 1 mM CaCl2 and 1 mM phenyl acetate. The increase in OD at 270 nm was monitored for 1 minute. One unit is defined as 1 μmol of phenyl actetate hydrolyzed per ml per minute (26).
The target in test [3] is T1, PON1. To be noted: inhibitor or antibody (diluted 1:10, v:v) added to the fractions; data not shown.

Read-outs that look alike come from different tables or passages of the source.

This is an account of results in US20070224657A1, “Distribution of PON1 as a marker of lipid related disorders” (priority 2006, published 2007).

T1 sequence (P27169 whole entry): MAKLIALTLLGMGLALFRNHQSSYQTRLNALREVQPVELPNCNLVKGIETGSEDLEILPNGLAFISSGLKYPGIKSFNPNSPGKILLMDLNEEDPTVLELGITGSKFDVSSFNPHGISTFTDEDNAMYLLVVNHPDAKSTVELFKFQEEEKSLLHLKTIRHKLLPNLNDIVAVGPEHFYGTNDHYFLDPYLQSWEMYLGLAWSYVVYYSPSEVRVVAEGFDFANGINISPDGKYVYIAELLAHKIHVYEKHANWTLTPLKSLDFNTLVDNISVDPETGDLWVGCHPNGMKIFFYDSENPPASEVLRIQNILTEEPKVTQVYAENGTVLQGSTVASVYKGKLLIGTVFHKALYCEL

With `Oc1ccc2ccccc2n1` [2-hydroxyquinoline], the inhibition at 200 µM in test [1] (J774.A1, read-out: reduction of cholesterol efflux by HDL preincubated with the inhibitor) is 25%; in test [1] (J774.A1, inhibitor 200 μM, vs non-treated LPDS, read-out: reduction of cholesterol efflux by LPDS preincubated with the inhibitor) it was 10%. The “reduction in HDL arylesterase activity” value in test [2] (HDL fraction) came to 60%. The “HDL arylesterase activity with inhibitor” value in test [2] (HDL fraction, without inhibitor 22.4±1.5) came out at 9.0±1.0 units/ml. In addition, the “reduction in LPDS arylesterase activity” value in test [2] (LPDS fraction) is 76%. Moreover, the “LPDS arylesterase activity with inhibitor” value in test [2] (LPDS fraction, without inhibitor 2.9±0.5) came out at 0.7±0.7 units/ml. For the same compound, the “paraoxonase activities in HDL and LPDS” value in test [3] is “significantly reduced”.
